According to patent publication US9187465B2, “Oxazole tyrosine kinase inhibitors” (Sareum Limited, priority 2007, dated 2015):
Structures can show the parent of a compound that is named as a salt.

Biological target: T1, human FLT4 (Homo sapiens, UniProt P35916)
T1 construct: a construct expressing the human FLT4 (789-1207) with an amino terminal GST tag; host or cells: Sf9 insect cells (baculovirus)
Assay: FLT4 kinase assay (DELFIA enzyme inhibition)
Type: biochemical
Settings: read-out: FLT4 IC50
Procedure: A GST-kinase fusion protein of 70 KDa was produced using sf9 baculovirus expression system, with a construct expressing the human FLT4 (789-1207) with an amino terminal GST tag. The protein was purified by affinity chromatography using glutathione-agarose followed by separation on a gel filtration column.
FLT4 enzyme activity is determined using a Dissociation Enhanced Lanthanide Fluorescent Immunoassay (DELFIA) with a peptide substrate derived from the MET (Tyr 1253) peptide […] with a core sequence […].
The amount of phosphorylated peptide produced is detected by means of a phospho-Tyrosine specific Europium-labelled antibody using Time-Resolved Fluorescence at Excitation 360-35 nm and Emission 620-35 nm.
Assay reactions are set up in a 25 uL final volume on a 96 well plate. […] The reaction is allowed to proceed for 30 minutes at room temperature before stopping with 100 uL Stop solution comprising of 100 mM EDTA, 1×BSA blocker in TBS (Perbio) and 0.05% Surfact-Amps20 (Perbio).
The stopped reaction is transferred to a black 96-well Neutravidin-coated plate (Perbio) and incubated for 30 minutes to capture the biotinylated peptide substrate. After washing wells 3 times with 200 uL TBS/T buffer, Anti-Phospho-Tyr-100 antibody labelled with Eu—N1 (Perkin Elmer AD0159) is added to all wells for 60 minutes at room temperature. After a repeat washing step, DELFIA Enhancement solution (Perkin Elmer) is added to all wells for 5 minutes and the fluorescence measured on a plate reader Analyst HT (Molecular Devices).
The % inhibition of the activity is calculated and plotted in order to determine the concentration of test compound required to inhibit 50% of the enzyme activity (IC50).

T1 sequence (P35916 789-1207): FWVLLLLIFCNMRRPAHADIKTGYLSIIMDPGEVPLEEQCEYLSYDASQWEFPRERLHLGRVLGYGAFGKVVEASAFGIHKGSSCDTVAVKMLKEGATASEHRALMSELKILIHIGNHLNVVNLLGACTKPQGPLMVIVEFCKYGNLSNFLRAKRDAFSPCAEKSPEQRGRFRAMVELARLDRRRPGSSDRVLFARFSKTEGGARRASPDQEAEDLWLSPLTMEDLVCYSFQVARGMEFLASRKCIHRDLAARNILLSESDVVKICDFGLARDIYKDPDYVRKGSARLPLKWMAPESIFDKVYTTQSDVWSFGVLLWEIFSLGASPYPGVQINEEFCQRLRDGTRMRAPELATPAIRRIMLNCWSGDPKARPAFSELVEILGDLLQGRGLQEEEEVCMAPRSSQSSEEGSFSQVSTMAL

Compound NC(=O)c1nc(-c2c(F)cccc2F)oc1-c1ccc(CN2CCOCC2)cc1 [Example F-20, 2-(2,6-difluorophenyl)-5-(4-(morpholinomethyl)phenyl)oxazole-4-carboxamide] has an IC50 of under 100 µM.

With NC(=O)c1nc(-c2c(F)cccc2F)oc1-c1ccc(CNS(=O)(=O)c2ccccc2)cc1 [Example K-2, 2-(2,6-difluorophenyl)-5-(4-(phenylsulfonamidomethyl)phenyl)oxazole-4-carboxamide] the IC50 was under 10 µM.

Work on COc1ccc(-c2nc(-c3cc(OC)cc(OC)c3)[nH]c2C(N)=O)cc1 [Example A-17, 2-(3,5-dimethoxyphenyl)-4-(4-methoxyphenyl)-1H-imidazole-5-carboxamide] yielded an IC50 of under 100 µM.

COc1ccc(-c2oc(-c3cccs3)nc2C(N)=O)cc1 [Example M-1, 5-(4-methoxyphenyl)-2-(thiophen-2-yl)oxazole-4-carboxamide] gave an IC50 of under 10 µM.

NC(=O)c1nc(-c2c(F)cccc2F)oc1-c1cccc(C(=O)N2CCOCC2)c1 [Example F-30, 2-(2,6-Difluorophenyl)-5-(3-(morpholine-4-carbonyl)phenyl)oxazole-4-carboxamide] showed an IC50 of under 10 µM.

COc1ccc(-c2nc(-c3c(F)cccc3F)oc2C(N)=O)cc1 [Example D-1, 2-(2,6-difluorophenyl)-4-(4-methoxyphenyl)oxazole-5-carboxamide] showed an IC50 of under 10 µM.

With COc1cccc(-c2nc(-c3c(F)cccc3F)[nH]c2C(N)=O)c1 [Example A-20, 2-(2,6-difluorophenyl)-4-(3-methoxyphenyl)-1H-imidazole-5-carboxamide] the IC50 was under 100 µM.

NC(=O)c1nc(-c2c(F)cccc2F)oc1-c1ccc(S(N)(=O)=O)cc1 [Example F-21, 5-(4-benzenesulfonamide)-2-(2,6-difluorophenyl)oxazole-4-carboxamide] was tested, and the IC50 was under 10 µM.

For COc1cc(Nc2oc(-c3c(F)cccc3F)nc2C(N)=O)cc(OC)c1OC [Example Q-40, 2-(2,6-difluorophenyl)-5-(3,4,5-trimethoxyphenylamino)oxazole-4-carboxamide], the IC50 was under 10 µM.

For COc1ccc(-c2oc(-c3ccsc3)nc2C(N)=O)cc1 [Example M-5, 5-(4-methoxyphenyl)-2-(thiophen-3-yl)oxazole-4-carboxamide], the IC50 was under 10 µM.

In the case of NC(=O)c1nc(-c2c(F)cccc2F)oc1-c1cccc(CN2CCOCC2)c1 [Example X-1, 2-(2,6-Difluorophenyl)-5-(3-(morpholinomethyl)phenyl)oxazole-4-carboxamide], the IC50 is reported as under 100 µM.

For NC(=O)c1nc(-c2c(F)cccc2F)oc1-c1ccc(CNC(=O)c2ccccc2)cc1 [Example L-1, 5-(4-(benzamidomethyl)phenyl)-2-(2,6-difluorophenyl)oxazole-4-carboxamide], the IC50 was under 10 µM.

For COc1ccc(-c2oc(-c3c(F)cccc3F)nc2C(N)=O)cc1OC [Example F-28, 2-(2,6-difluorophenyl)-5-(3,4-dimethoxyphenyl)oxazole-4-carboxamide], the IC50 was under 10 µM.

In the case of NC(=O)c1nc(Nc2cn[nH]c2)oc1-c1ccc(N2CCNCC2)cc1 [Example R-19, 2-(1H-pyrazol-4-ylamino)-5-(4-(piperazin-1-yl)phenyl)oxazole-4-carboxamide], the IC50 is reported as under 10 µM.

In the case of COc1ccc(-c2nc(-c3ccccc3)[nH]c2C(N)=O)cc1 [Example A-1, 4-(4-methoxyphenyl)-2-phenyl-1H-imidazole-5-carboxamide], the IC50 is reported as under 100 µM.

NC(=O)c1nc(-c2c(F)cccc2F)oc1-c1ccc(N2CCOCC2)cc1 [Example F-4, 2-(2,6-difluorophenyl)-5-(4-morpholinophenyl)oxazole-4-carboxamide] was tested, and the IC50 was under 10 µM.

NC(=O)c1nc(-c2c(F)cccc2F)oc1Nc1ccc(N)cc1 [Example V-1, 5-(4-aminophenylamino)-2-(2,6-difluorophenyl)oxazole-4-carboxamide] gave an IC50 of under 10 µM.

NC(=O)c1nc(-c2c(F)cccc2F)oc1-c1cccs1 [Example E-1, 2-(2,6-difluorophenyl)-5-(thiophen-2-yl)oxazole-4-carboxamide] gave an IC50 of under 10 µM.

For NCC1CN(Cc2cccc(-c3oc(-c4c(F)cccc4F)nc3C(N)=O)c2)CCO1 (centres unmarked) [Example X-4, 5-(3-((2-(Aminomethyl)morpholino)methyl)phenyl)-2-(2,6-difluorophenyl)oxazole-4-carboxamide formate salt], the IC50 was under 100 µM.

Work on NC(=O)c1[nH]c(-c2c(F)cccc2F)nc1-c1ccccc1 [Example A-19, 2-(2,6-difluorophenyl)-4-phenyl-1H-imidazole-5-carboxamide] yielded an IC50 of under 100 µM.

NC(=O)c1nc(-c2c(F)cccc2F)oc1-c1cccc(CN2CCNC(=O)C2)c1 [Example X-2, 2-(2,6-Difluorophenyl)-5-(3-((3-oxopiperazin-1-yl)methyl)phenyl)oxazole-4-carboxamide] gave an IC50 of under 100 µM.

NC(=O)c1nc(-c2c(F)cccc2F)oc1-c1ccc2c(c1)OCO2 [Example F-29, 5-(benzo[d][1,3]dioxol-5-yl)-2-(2,6-difluorophenyl)oxazole-4-carboxamide] was tested, and the IC50 was under 100 µM.

NC(=O)c1nc(-c2c(F)cccc2F)oc1-c1ccccc1 [Example F-1, 2-(2,6-difluorophenyl)-5-phenyloxazole-4-carboxamide] was tested, and the IC50 was under 10 µM.

Work on NC(=O)c1nc(-c2c(F)cccc2F)oc1-c1cccc(CN2CCNCC2)c1 [Example X-3, 2-(2,6-Difluorophenyl)-5-(3-(piperazin-1-ylmethyl)phenyl)oxazole-4-carboxamide formate salt] yielded an IC50 of under 100 µM.

Work on COc1ccc(-c2nc(-c3ccc(Br)cc3F)[nH]c2C(N)=O)cc1 [Example A-9, 2-(4-bromo-2-fluorophenyl)-4-(4-methoxyphenyl)-1H-imidazole-5-carboxamide] yielded an IC50 of under 100 µM.

CS(=O)(=O)c1ccc(-c2oc(-c3c(F)cccc3F)nc2C(N)=O)cc1 [Example F-6, 2-(2,6-difluorophenyl)-5-(4-(methylsulfonyl)phenyl)oxazole-4-carboxamide] gave an IC50 of under 10 µM.

Work on NC(=O)c1nc(-c2c(F)cccc2F)oc1-c1ccc(CNC(=O)c2cccs2)cc1 [Example L-3, 2-(2,6-difluorophenyl)-5-(4-((thiophene-2-carboxamido)methyl)phenyl)oxazole-4-carboxamide] yielded an IC50 of under 10 µM.

NC(=O)c1nc(-c2c(F)cccc2F)oc1-c1ccc(CNS(=O)(=O)c2ccc(F)cc2)cc1 [Example K-1, 2-(2,6-difluorophenyl)-5-(4-((4-fluorophenylsulfonamido)methyl)phenyl)oxazole-4-carboxamide] showed an IC50 of under 10 µM.

NC(=O)c1nc(-c2c(F)cccc2F)oc1-n1cnc2ccccc21 [Example Q-38, 5-(1H-benzo[d]imidazol-1-yl)-2-(2,6-difluorophenyl)oxazole-4-carboxamide] was tested, and the IC50 was under 10 µM.
